This passage reports IC50 results from patent US9334263B2, “Compositions useful for treating disorders related to kit” (BLUEPRINT MEDICINES CORPORATION, priority 2013, dated 2016).

The target in one assay is T1, D816V Kit (Homo sapiens, UniProt P10721, D816V).
T1 construct: purchased Carna Bioscience 08-156
As to the kind of experiment: Kit D816V assay at Km (Caliper electrophoretic mobility shift). As to conditions: 15 uM ATP, 25 C, 90 minutes. Format: biochemical. As to the method:
In order to assess the activity of chemical compounds against the relevant kinase of interest, the Caliper LifeSciences electrophoretic mobility shift technology platform is used. Fluorescently labeled substrate peptide is incubated in the presence of kinase and ATP so that a […] proportion of the peptide is phosphorylated. At the end of the reaction, the mix of phosphorylated (product) and non-phosphorylated (substrate) peptides are passed through the microfluidic system of the Caliper EZ Reader 2, under an applied potential difference. The presence of the phosphate group on the product peptide provides a difference in mass and charge between those of the substrate peptide, resulting in a separation of the substrate and product pools in the sample. As the pools pass a LEDS within the instrument, these pools are detected and resolved as separate peaks. The ratio between these peaks therefore reflects the activity of the chemical matter at that concentration in that well, under those conditions.
The reaction was stopped by the addition of 70 ul of Stop buffer (100 mM HEPES pH 7.5, 0.015% Brij 35, 35 mM EDTA and 0.2% of Coating Reagent 3 (Caliper Lifesciences)). The plate was then read on a Caliper EZReader 2 (protocol settings: −1.9 psi, upstream voltage −700, downstream voltage −3000, post sample sip 35 s).

In assay [1] the target is T2, Kit D816V (HMC1.2 cells, Kit V560G and D816V) (Homo sapiens, UniProt P10721, D816V/V560G).
T2 construct: endogenous in cells; host or cells: HMC1.2 cells
T2 sequence (P10721 26-976 V560G/D816V): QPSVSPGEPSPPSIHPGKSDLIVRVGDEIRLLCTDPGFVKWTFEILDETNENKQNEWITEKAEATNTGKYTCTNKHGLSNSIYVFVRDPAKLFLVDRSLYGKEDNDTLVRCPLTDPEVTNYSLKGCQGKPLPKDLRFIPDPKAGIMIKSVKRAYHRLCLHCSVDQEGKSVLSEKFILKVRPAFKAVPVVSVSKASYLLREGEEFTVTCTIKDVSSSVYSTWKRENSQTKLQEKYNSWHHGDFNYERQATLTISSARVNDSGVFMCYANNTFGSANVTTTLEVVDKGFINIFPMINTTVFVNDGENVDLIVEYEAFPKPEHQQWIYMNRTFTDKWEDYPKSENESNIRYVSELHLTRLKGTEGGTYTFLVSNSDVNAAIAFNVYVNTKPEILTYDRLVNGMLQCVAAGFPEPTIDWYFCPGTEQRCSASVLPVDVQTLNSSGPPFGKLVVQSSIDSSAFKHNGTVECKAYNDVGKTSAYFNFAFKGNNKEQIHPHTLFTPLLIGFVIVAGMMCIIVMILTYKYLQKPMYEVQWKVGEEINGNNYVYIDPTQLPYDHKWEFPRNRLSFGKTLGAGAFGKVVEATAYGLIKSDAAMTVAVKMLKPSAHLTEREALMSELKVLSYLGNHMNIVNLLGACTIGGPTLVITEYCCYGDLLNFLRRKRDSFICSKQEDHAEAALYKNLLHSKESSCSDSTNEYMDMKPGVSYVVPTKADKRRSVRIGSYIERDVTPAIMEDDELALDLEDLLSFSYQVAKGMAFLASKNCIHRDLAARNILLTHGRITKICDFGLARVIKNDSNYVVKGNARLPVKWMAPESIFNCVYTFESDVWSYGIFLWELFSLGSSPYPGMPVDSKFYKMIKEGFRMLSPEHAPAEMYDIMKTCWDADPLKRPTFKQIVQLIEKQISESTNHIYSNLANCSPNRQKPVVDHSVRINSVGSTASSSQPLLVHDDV
The experiment in a line: HMC1.2 autophosphorylation assay (AlphaLISA, phospho-Y719 c-Kit). As to conditions: Kit autophosphorylation at tyrosine 719, 90 minutes, read-out: Cellular Activity. The class given is cell-based. As to the method:
HMC1.2 Autophosphorylation Assay:
10,000 HMC1.2 cells were incubated in 22 ul culture media (phenol-red free IMDM, no serum) in each well of a 384-well plate and serum starved overnight in a tissue culture incubator (5% CO2, 37° C.). A 10-point dose concentration series of compound (25 uM-95.4 pM) were then added to the cells in a volume of 3.1 ul to each well (0.25% DMSO final concentration). After 90 minutes, 6 ul of 5× AlphaLISA Lysis Buffer (Perkin Elmer) supplemented with a protease and phosphatase inhibitor cocktail (Cell Signaling Technologies) was added to each well and shaken at 450 rpm for 15 minutes at 4° C. 10 ul of phospho-Y719 c-Kit and total c-Kit antibodies (15 nM final concentration, Cell Signaling Technologies) and 50 ug/ml AlphaLISA rabbit acceptor beads (Perkin Elmer) were added to each well and shaken at 300 rpm at room temperature for 2 hours. 10 ul of 100 ug/ml streptavidin donor beads (Perkin Elmer) were added to each well, blocked from light with aluminum adhesive and shaken at 300 rpm at room temperature for 2 hours. Fluorescence signal was obtained on Envision (Perkin Elmer) by AlphaScreen 384 well HTS protocol.
This cell line contains Kit mutated at positions V560G and D816V resulting in constitutive activation of the kinase. The following compounds were tested in an assay to measure direct inhibition of Kit D816V kinase activity by assaying Kit autophosphorylation at tyrosine 719 on the Kit protein.

SMILES strings stand for the structures. Where only a bound is given, the exact number is not on record here.

T1 sequence (P10721 26-976 D816V): as the sequence (P10721 26-976 V560G/D816V) above, with G535V counted along it

On to `Cc1nn(C[C@H](C)O)cc1Nc1ncnc(N2CCN(c3ncc(Sc4ccccc4F)cn3)CC2)n1` [Compound 153], for which the IC50 on D816V Kit is under 1 nM; in assay [1], 10 to 100 nM.
As for `Cc1c(Nc2ncnc(N3CCN(c4ncc(Sc5ccccc5F)cn4)CC3)n2)cnn1C[C@H](C)O` [Compound 154], the IC50 was in the range of 1.01 to 10 nM at D816V Kit and 10 to 100 nM in assay [1].
`OC1(c2ccc(Nc3ncnc(N4CCN(c5ncc(Cc6ccccc6)cn5)CC4)n3)cc2)CCCCC1` [Compound 155]: the IC50 was in the range of 1.01 to 10 nM at D816V Kit and 10 to 100 nM in assay [1].
In the same order, the values of `c1ccc(Cc2cnc(N3CCN(c4ncnc(Nc5ccc(O[C@H]6CCCNC6)nc5)n4)CC3)nc2)cc1` [Compound 171] are 1.01 to 10 nM and 10 to 100 nM.
With `CC1(C(O)c2ccc(Nc3ncnc(N4CCN(c5ncc(Cc6ccccc6)cn5)CC4)n3)cc2)COC1` (centres unmarked) [Compound 172], the IC50 was under 1 nM on D816V Kit and 10 to 100 nM in assay [1].
With `C=C(c1ccccc1)c1cnc(N2CCN(c3ncnc(Nc4cnn(C[C@@H]5CNCCO5)c4)n3)CC2)nc1` [Compound 173], the IC50 on D816V Kit lay within 1.01 to 10 nM; in assay [1], 10 to 100 nM.
As to `Fc1cc(N2CCNCC2)ccc1Nc1ncnc(N2CCN(c3ncc(Cc4ccccc4)cn3)CC2)n1` [Compound 175], the figures for the IC50 (at D816V Kit; in assay [1]) were 1.01 to 10 nM and 1000 to 10000 nM, respectively.
`CN1CCNC[C@H]1Cn1cc(Nc2ncnc(N3CCN(c4ncc(Cc5ccccc5)cn4)CC3)n2)cn1` [Compound 176]: the IC50 on D816V Kit lay within 1.01 to 10 nM; in assay [1], 10 to 100 nM.
In the same order, the values of `CN1CCNC[C@@H]1Cn1cc(Nc2ncnc(N3CCN(c4ncc(Cc5ccccc5)cn4)CC3)n2)cn1` [Compound 177] are 1.01 to 10 nM and 10 to 100 nM.
In the same order, the values of `O=C(c1ccccc1)c1cnc(N2CCN(c3ncnc(Nc4cnn(CC5CNCCO5)c4)n3)CC2)nc1` (centres unmarked) [Compound 178] are 1.01 to 10 nM and 100 to 1000 nM.
With `C[C@@H]1CN(c2ncnc(Nc3cnn(C[C@@H]4CNCCO4)c3)n2)CCN1c1ncc(Cc2ccccc2)cn1` [Compound 183], the results for the IC50 (on D816V Kit; in assay [1]) were 1.01 to 10 nM and 10 to 100 nM, respectively.
In the same order, the values of `Cc1nn(C[C@@H]2CNCCO2)cc1Nc1ncnc(N2CCN(c3ncc(Cc4ccccc4)cn3)CC2)n1` [Compound 184] are 1.01 to 10 nM and 10 to 100 nM.
Take `Cc1c(Nc2ncnc(N3CCN(c4ncc(Cc5ccccc5)cn4)CC3)n2)cnn1C[C@@H]1CNCCO1` [Compound 185]: the IC50 at D816V Kit fell in the range of 1.01 to 10 nM; in assay [1], 10 to 100 nM.
With `C[C@H](c1ccccc1)c1cnc(N2CCN(c3ncnc(Nc4cnn(C[C@@H]5CNCCO5)c4)n3)CC2)nc1` [Compound 186, N-(1-((S)-morpholin-2-ylmethyl)-1H-pyrazol-4-yl)-4-(4-(5-((R)-1-phenylethyl)pyrimidin-2-yl)piperazin-1-yl)-1,3,5-triazin-2-amine], the IC50 was under 1 nM on D816V Kit and 10 to 100 nM in assay [1].
With `O[C@@H](c1ccccc1)c1cnc(N2CCN(c3ncnc(Nc4cnn(CC5CNCCO5)c4)n3)CC2)nc1` (stereo partly drawn) [Compound 189, (S)-(2-(4-(4-(1-(morpholin-2-ylmethyl)-1H-pyrazol-4-ylamino)-1,3,5-triazin-2-yl)piperazin-1-yl)pyrimidin-5-yl)(phenyl)methanol], the IC50 at D816V Kit is under 1 nM; in assay [1], 10 to 100 nM.
Take `c1ccc(OCc2cnc(N3CCN(c4ncnc(Nc5cnn(C[C@@H]6CNCCO6)c5)n4)CC3)nc2)cc1` [Compound 190]: the figures for the IC50 (at D816V Kit; in assay [1]) were 1.01 to 10 nM and 10 to 100 nM, respectively.
In the same order, the values of `O=S1(=O)Cc2ccc(Nc3ncnc(N4CCN(c5ncc(Cc6ccccc6)cn5)CC4)n3)cc2CN1` [Compound 192] are under 1 nM and under 10 nM.
On to `CC(C)(O)c1ccc(Nc2ncnc(N3CCN(c4ncc([C@@](C)(N)c5ccc(F)cc5)cn4)CC3)n2)cc1` [Compound 193], for which the figures for the IC50 (on D816V Kit; in assay [1]) were under 1 nM and under 10 nM, respectively.
In the same order, the values of `C[C@](N)(c1ccc(F)cc1)c1cnc(N2CCN(c3ncnc(Nc4ccc([C@@H](O)CO)cc4)n3)CC2)nc1` [Compound 195] are under 1 nM and under 10 nM.
As for `Fc1ccc(Cc2cnc(N3CCN(c4ncnc(Nc5cnn(C[C@@H]6CNCCO6)c5)n4)CC3)nc2)cc1` [Compound 196], the IC50 was under 1 nM at D816V Kit and 10 to 100 nM in assay [1].
As to `Fc1cccc(Cc2cnc(N3CCN(c4ncnc(Nc5cnn(C[C@@H]6CNCCO6)c5)n4)CC3)nc2)c1` [Compound 197], the figures for the IC50 (at D816V Kit; in assay [1]) were 1.01 to 10 nM and 100 to 1000 nM, respectively.
In the case of `Fc1ccccc1Cc1cnc(N2CCN(c3ncnc(Nc4cnn(C[C@@H]5CNCCO5)c4)n3)CC2)cn1` [Compound 198], the IC50 was under 1 nM at D816V Kit and under 10 nM in assay [1].
In the case of `c1ccc(Sc2cnc(N3CCN(c4ncnc(Nc5cnn(C[C@@H]6CNCCO6)c5)n4)CC3)nc2)cc1` [Compound 199], the IC50 on D816V Kit fell in the range of 1.01 to 10 nM; in assay [1], 10 to 100 nM.
In the same order, the values of `Fc1ccc(Nc2cnc(N3CCN(c4ncnc(Nc5cnn(C[C@@H]6CNCCO6)c5)n4)CC3)nc2)cc1` [Compound 200] are 1.01 to 10 nM and 100 to 1000 nM.
As to `CC(C)(O)Cn1cc(Nc2ncnc(N3CCN(c4ncc(C(C)(C)c5ccc(F)cc5)cn4)CC3)n2)cn1` [Compound 201], the IC50 was under 1 nM at D816V Kit and 10 to 100 nM in assay [1].
On to `Fc1ccc(Oc2cnc(N3CCN(c4ncnc(Nc5cnn(C[C@@H]6CNCCO6)c5)n4)CC3)nc2)cc1` [Compound 202], for which the figures for the IC50 (on D816V Kit; in assay [1]) were 1.01 to 10 nM and 100 to 1000 nM, respectively.
For `Fc1ccccc1Oc1cnc(N2CCN(c3ncnc(Nc4cnn(C[C@@H]5CNCCO5)c4)n3)CC2)nc1` [Compound 203, (S)-4-(4-(5-(2-fluorophenoxyl)pyrimidin-2-yl)piperazin-1-yl)-N-(1-(morpholin-2-ylmethyl)-1H-pyrazol-4-yl)-1,3,5-triazin-2-amine], the IC50 is 1.01 to 10 nM on D816V Kit and 10 to 100 nM in assay [1].
For `Fc1cccc(Oc2cnc(N3CCN(c4ncnc(Nc5cnn(C[C@@H]6CNCCO6)c5)n4)CC3)nc2)c1` [Compound 204], the IC50 on D816V Kit was 1.01 to 10 nM; in assay [1] it was 100 to 1000 nM.
In the case of `C[C@H](O)CNc1ccc(Nc2ncnc(N3CCN(c4ncc(Sc5ccccc5F)cn4)CC3)n2)cc1` [Compound 205], the IC50 at D816V Kit fell in the range of 1.01 to 10 nM; in assay [1], 10 to 100 nM.
In the same order, the values of `CC(C)(O)Cn1cc(Nc2ncnc(N3CCN(c4ncc([C@](C)(O)c5ccc(F)cc5)cn4)CC3)n2)cn1` [Compound 207] are under 1 nM and 10 to 100 nM.
For `CC(C)(O)Cn1cc(Nc2ncnc(N3CCN(c4ncc([C@@](C)(O)c5ccc(F)cc5)cn4)CC3)n2)cn1` [Compound 208], the IC50 at D816V Kit is under 1 nM; in assay [1], under 10 nM.
Take `Cc1nn(CC(C)(C)O)cc1Nc1ncnc(N2CCN(c3ncc(Sc4ccccc4F)cn3)CC2)n1` [Compound 209]: the IC50 on D816V Kit is under 1 nM; in assay [1], 10 to 100 nM.
In the same order, the values of `Cc1c(Nc2ncnc(N3CCN(c4ncc(Sc5ccccc5F)cn4)CC3)n2)cnn1CC(C)(C)O` [Compound 210] are under 1 nM and 10 to 100 nM.
In the same order, the values of `O=C1CCc2ccc(Nc3ncnc(N4CCN(c5ncc(Cc6ccccc6)cn5)C(CCO)C4)n3)cc2N1` (centres unmarked) [Compound 213] are 1.01 to 10 nM and 10 to 100 nM.
Turning to `C[C@@H](O)CN1CCc2ccc(Nc3ncnc(N4CCN(c5ncc(Cc6ccccc6)cn5)CC4)n3)cc2C1` [Compound 220], the IC50 at D816V Kit was under 1 nM; in assay [1], 10 to 100 nM.
On to `C[C@H](O)CN1CCc2ccc(Nc3ncnc(N4CCN(c5ncc(Cc6ccccc6)cn5)CC4)n3)cc2C1` [Compound 221], for which the IC50 at D816V Kit is under 1 nM; in assay [1], under 10 nM.
Consider `C[C@@H]1CN(c2ncnc(Nc3ccc(N4CCC[C@@H](O)C4)cc3)n2)CCN1c1ncc(Cc2ccccc2)cn1` [Compound 222], for which the IC50 on D816V Kit was 1.01 to 10 nM; in assay [1], 10 to 100 nM.
